Reference: patent US20260258032A1, “TYROSINE KINASE 2 INHIBITORS AND USES THEREOF” (BIOGEN MA INC., priority 2022, published 2026)
Structures can show the parent of a compound that is named as a salt.

Key:
[1] = tested on: Tyk2 kinase activity on STAT4; assay: pSTAT4 cell assay (MSD, NK92 cells); format: cell-based; settings: compounds 1 hr, stimulated 15 minutes
Description: The inhibitory potency of compounds of the disclosure against the Tyk2 kinase activity on STAT4 was evaluated using an MSD-platform plate-based assay format. NK92 cells natively expressing STAT4 and Tyk2 were serum-starved to reduce background phosphorylation levels, then cells were treated compounds for 1 hr with a 10-point four-fold dilution series starting at 10 μM. Cells were then stimulated with 30 ng/mL IL2 for 15 minutes. Cells were lysed and […] levels were quantitated using an MSD plate-based assay with anti-STAT4 antibodies. The data were normalized and the percent activity versus log concentration of compound were fitted with a 4-parameter logistic model to generate to generate IC50 curves.

[2] = target: T1, JH2 domain of human Tyk2 (Homo sapiens, UniProt P29597); assay: JH2 biochemical assay (TR-FRET probe displacement); format: binding
T1 construct: 10×His-tagged TYK2 JH2 domain (amino acid 575-876)
Description: The inhibitory potency of compounds of the disclosure against the kinase activity of recombinantly generated JH2 domain of human Tyk2 was evaluated in a plate-based assay using a TR-FRET assay platform. Briefly, 2 nM of recombinant JH2 domain [10×His-tagged TYK2 JH2 domain (amino acid 575-876)] was combined with 2 nM probe ((S)-6-amino-9-(2-carboxy-4-((1-(3-(8-methyl-5-(methylamino)-8H-imidazo[4,5-d]thiazolo[5,4-b]pyridin-2-yl)phenyl)ethyl)carbamoyl)phenyl)-3-iminio-5-sulfo-3H-xanthene-4-sulfonate), 0.1 nM Tb-labeled anti-His antibody, and compounds of disclosure for 60 minutes. Compounds are tested at either […] top concentration, 10 points of 3-fold dilution. The TR-FRET signal […] by compounds and signal was calculated by taking the ratio of fluorescence at 520 nm and 495 nm. The data was normalized and the percent activity versus log concentration of compound was fitted with a 4-parameter logistic model to generate IC50 curves.

[3] = TR-FRET probe displacement, JH2 domain of human Tyk2

T1 sequence (P29597 575-876): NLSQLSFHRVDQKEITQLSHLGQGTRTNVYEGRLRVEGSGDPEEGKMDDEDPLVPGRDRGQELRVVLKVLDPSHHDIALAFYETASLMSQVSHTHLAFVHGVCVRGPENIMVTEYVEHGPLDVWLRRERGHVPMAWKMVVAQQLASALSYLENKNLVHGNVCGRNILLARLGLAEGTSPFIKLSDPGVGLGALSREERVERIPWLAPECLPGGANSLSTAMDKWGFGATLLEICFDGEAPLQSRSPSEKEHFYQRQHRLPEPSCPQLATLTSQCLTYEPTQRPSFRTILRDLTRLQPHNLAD

With `CO[C@H]1C[C@H](Oc2cc(N3CC4(CC4)c4cnc(NC(C)=O)cc43)nc(C(C)(F)F)c2)C1` [Example 92, N-(1′-(6-(1,1-difluoroethyl)-4-((1r,3r)-3-methoxycyclobutoxy)pyridin-2-yl)-1′,2′-dihydrospiro[cyclopropane-1,3′-pyrrolo[3,2-c]pyridin]-6′-yl)acetamide] as the molecule, how does the IC50 [1] read?
Its IC50 is 10 to 100 nM.

Which IC50 [1] does the source give for `COC1(c2cc(C)cc(N3CC4(CC4)c4cnc(NC(C)=O)cc43)n2)CCOC1` (centres unmarked) [Example 96, N-(1′-(6-(3-methoxytetrahydrofuran-3-yl)-4-methylpyridin-2-yl)-1′,2′-dihydrospiro[cyclopropane-1,3′-pyrrolo[3,2-c]pyridin]-6′-yl)acetamide] here?
The IC50 was 10 to 100 nM.

Which IC50 [1] does the source give for `CC(=O)Nc1cc2c(cn1)C1(CC1)CN2c1cc(C)nc(-c2ccccc2)n1` [Example 105, N-(1′-(6-methyl-2-phenylpyrimidin-4-yl)-1′,2′-dihydrospiro[cyclopropane-1,3′-pyrrolo[3,2-c]pyridin]-6′-yl)acetamide] here?
Its IC50 is at least 1000 nM.

For `CC(=O)Nc1cc2c(cn1)C1(CC1)CN2c1cc(C)nc(-c2cccnc2)n1` [Example 106, N-(1′-(6-methyl-2-(pyridin-3-yl)pyrimidin-4-yl)-1′,2′-dihydrospiro[cyclopropane-1,3′-pyrrolo[3,2-c]pyridin]-6′-yl)acetamide], which IC50 [1] is on record?
Its IC50 is at least 1000 nM.

For `CC(=O)Nc1cc2c(cn1)C1(CC1)CN2c1cc(C)nc(-c2ccncc2)n1` [Example 107, N-(1′-(6-methyl-2-(pyridin-4-yl)pyrimidin-4-yl)-1′,2′-dihydrospiro[cyclopropane-1,3′-pyrrolo[3,2-c]pyridin]-6′-yl)acetamide], which IC50 [1] is on record?
Its IC50 is at least 1000 nM.

`CC(=O)Nc1cc2c(cn1)C1(CC1)CN2c1cc(C)nc(-c2ncccn2)n1` [Example 108, N-(1′-(6-methyl-[2,2′-bipyrimidin]-4-yl)-1′,2′-dihydrospiro[cyclopropane-1,3′-pyrrolo[3,2-c]pyridin]-6′-yl)acetamide] was tested. Which IC50 [1] did it give?
Its IC50 is at least 1000 nM.

How did the IC50 [1] turn out when `CC(=O)Nc1cc2c(cn1)C1(CC1)CN2c1cc(C)nc(-c2coc(C)n2)n1` [Example 109, N-(1′-(6-methyl-2-(2-methyloxazol-4-yl)pyrimidin-4-yl)-1′,2′-dihydrospiro[cyclopropane-1,3′-pyrrolo[3,2-c]pyridin]-6′-yl)acetamide] was run?
Its IC50 is 100 to 1000 nM.

Which IC50 [1] does the source give for `CC(=O)Nc1cc2c(cn1)C1(CC1)CN2c1cc(C)nc(-n2nc(C)cc2C)n1` [Example 110, N-(1′-(2-(3,5-dimethyl-1H-pyrazol-1-yl)-6-methylpyrimidin-4-yl)-1′,2′-dihydrospiro[cyclopropane-1,3′-pyrrolo[3,2-c]pyridin]-6′-yl)acetamide] here?
Its IC50 is at least 1000 nM.

Which IC50 [1] does the source give for `CC(=O)Nc1cc2c(cn1)C1(CC1)CN2c1cc(C)nc(-c2cccc(F)c2)n1` [Example 111, N-(1′-(2-(3-fluorophenyl)-6-methylpyrimidin-4-yl)-1′,2′-dihydrospiro[cyclopropane-1,3′-pyrrolo[3,2-c]pyridin]-6′-yl)acetamide] here?
Its IC50 is at least 1000 nM.

With `CC(=O)Nc1cc2c(cn1)C1(CC1)CN2c1cc(C)nc(-c2ccccn2)n1` [Example 112, N-(1′-(6-methyl-2-(pyridin-2-yl)pyrimidin-4-yl)-1′,2′-dihydrospiro[cyclopropane-1,3′-pyrrolo[3,2-c]pyridin]-6′-yl)acetamide] as the molecule, how does the IC50 [1] read?
The IC50 was at least 1000 nM.

With `CC(=O)Nc1cc2c(cn1)C1(CC1)CN2c1cc(C)nc(N(C)C(C)C)n1` [Example 115, N-(1′-(2-(isopropyl(methyl)amino)-6-methylpyrimidin-4-yl)-1′,2′-dihydrospiro[cyclopropane-1,3′-pyrrolo[3,2-c]pyridin]-6′-yl)acetamide] as the molecule, how does the IC50 [1] read?
Its IC50 is at least 1000 nM.

With `CC(=O)Nc1cc2c(cn1)C1(CC1)CN2c1cc(C)nc(C2CC2(C)C)n1` (centres unmarked) [Example 124, N-(1′-(2-(2,2-dimethylcyclopropyl)-6-methylpyrimidin-4-yl)-1′,2′-dihydrospiro[cyclopropane-1,3′-pyrrolo[3,2-c]pyridin]-6′-yl)acetamide] as the molecule, how does the IC50 [1] read?
The IC50 was 10 to 100 nM.

Which IC50 [1] does the source give for `CC(=O)Nc1cc2c(cn1)C1(CC1)CN2c1cc(OCC2(C)COC2)nc(C(C)(F)F)n1` [Example 139, N-(1′-(2-(1,1-difluoroethyl)-6-((3-methyloxetan-3-yl)methoxy)pyrimidin-4-yl)-1′,2′-dihydrospiro[cyclopropane-1,3′-pyrrolo[3,2-c]pyridin]-6′-yl)acetamide trifluoroacetate] here?
Its IC50 is at least 1000 nM.

For `CC(=O)Nc1cc2c(cn1)C1(CC1)CN2c1cc(Oc2cnccn2)nc(C(C)(F)F)n1` [Example 146, N-(1′-(2-(1,1-difluoroethyl)-6-(pyrazin-2-yloxy)pyrimidin-4-yl)-1′,2′-dihydrospiro[cyclopropane-1,3′-pyrrolo[3,2-c]pyridin]-6′-yl)acetamide], which IC50 [1] is on record?
Its IC50 is at least 1000 nM.

For `CC(=O)Nc1cc2c(cn1)C1(CC1)CN2c1cc(C)cc(-c2cnn(C)c2C(F)F)n1` [Example 262, N-(1′-(6-(5-(difluoromethyl)-1-methyl-1H-pyrazol-4-yl)-4-methylpyridin-2-yl)-1′,2′-dihydrospiro[cyclopropane-1,3′-pyrrolo[3,2-c]pyridin]-6′-yl)acetamide trifluoroacetate], which IC50 ([2]; JH2 biochemical assay) is on record?
Its IC50 is 10 to 100 nM.

For `CC(=O)Nc1cc2c(cn1)C1(CC1)CN2c1cc(C)cc(-c2cnn(C3COC3)c2)n1` [Example 265, N-(1′-(4-methyl-6-(1-(oxetan-3-yl)-1H-pyrazol-4-yl)pyridin-2-yl)-1′,2′-dihydrospiro[cyclopropane-1,3′-pyrrolo[3,2-c]pyridin]-6′-yl)acetamide trifluoroacetate], which IC50 ([2]; JH2 biochemical assay) is on record?
Its IC50 is 10 to 100 nM.

For `CC(=O)Nc1cc2c(cn1)C1(CC1)CN2c1cc(C)cc(-c2cnn(CC3CC3)c2)n1` [Example 266, N-(1′-(6-(1-(cyclopropylmethyl)-1H-pyrazol-4-yl)-4-methylpyridin-2-yl)-1′,2′-dihydrospiro[cyclopropane-1,3′-pyrrolo[3,2-c]pyridin]-6′-yl)acetamide trifluoroacetate], which IC50 ([2]; JH2 biochemical assay) is on record?
The IC50 was 10 to 100 nM.

For `COc1ccc(-c2cc(C)cc(N3CC4(CC4)c4cnc(NC(C)=O)cc43)n2)cn1` [Example 267, N-(1′-(6′-methoxy-4-methyl-[2,3′-bipyridin]-6-yl)-1′,2′-dihydrospiro[cyclopropane-1,3′-pyrrolo[3,2-c]pyridin]-6′-yl)acetamide trifluoroacetate], which IC50 ([2]; JH2 biochemical assay) is on record?
Its IC50 is 100 to 1000 nM.

With `CC(=O)Nc1cc2c(cn1)C1(CC1)CN2c1cc(C)cc(-c2cnn(C3CNC3)c2)n1` [Example 268, N-(1′-(6-(1-(azetidin-3-yl)-1H-pyrazol-4-yl)-4-methylpyridin-2-yl)-1′,2′-dihydrospiro[cyclopropane-1,3′-pyrrolo[3,2-c]pyridin]-6′-yl)acetamide trifluoroacetate] as the molecule, how does the IC50 ([2]; JH2 biochemical assay) read?
Its IC50 is 100 to 1000 nM.

`CC(=O)Nc1cc2c(cn1)C1(CC1)CN2c1cc(C)nc(-c2cnn(C3CNC3)c2)n1` [Example 269, N-(1′-(2-(1-(azetidin-3-yl)-1H-pyrazol-4-yl)-6-methylpyrimidin-4-yl)-1′,2′-dihydrospiro[cyclopropane-1,3′-pyrrolo[3,2-c]pyridin]-6′-yl)acetamide trifluoroacetate] was tested. Which IC50 ([2]; JH2 biochemical assay) did it give?
Its IC50 is 100 to 1000 nM.

With `CC(=O)Nc1cc2c(cn1)C1(CCNCC1)CN2c1nccc(C(C)(F)F)n1` [Example 270, N-(1′-(4-(1,1-difluoroethyl)pyrimidin-2-yl)-1′,2′-dihydrospiro[piperidine-4,3′-pyrrolo[3,2-c]pyridin]-6′-yl)acetamide] as the molecule, how does the IC50 ([2]; JH2 biochemical assay) read?
Its IC50 is at least 1000 nM.

With `CC(=O)Nc1cc2c(cn1)C1(CCNCC1)CN2c1ccnc(C(C)(F)F)n1` [Example 271, N-(1′-(2-(1,1-difluoroethyl)pyrimidin-4-yl)-1′,2′-dihydrospiro[piperidine-4,3′-pyrrolo[3,2-c]pyridin]-6′-yl)acetamide] as the molecule, how does the IC50 ([2]; JH2 biochemical assay) read?
Its IC50 is at least 1000 nM.

With `CC(=O)Nc1cc2c(cn1)C1(CCNCC1)CN2c1cccc(C(C)(F)F)n1` [Example 272, N-(1′-(6-(1,1-difluoroethyl)pyridin-2-yl)-1′,2′-dihydrospiro[piperidine-4,3′-pyrrolo[3,2-c]pyridin]-6′-yl)acetamide] as the molecule, how does the IC50 ([2]; JH2 biochemical assay) read?
The IC50 was at least 1000 nM.

For `CC(=O)Nc1cc2c(cn1)C1(CC1)CN2c1cc(C)nc(OCC(F)(F)F)n1` [Example 361, N-(1′-(6-methyl-2-(2,2,2-trifluoroethoxy)pyrimidin-4-yl)-1′,2′-dihydrospiro[cyclopropane-1,3′-pyrrolo[3,2-c]pyridin]-6′-yl)acetamide trifluoroacetate], which IC50 ([2]; JH2 biochemical assay) is on record?
The IC50 was 10 to 100 nM.

Which IC50 [2, 3] does the source give for `CC(=O)Nc1cc2c(cn1)C1(CC1)CN2c1cc(C)nc(OCC2CCO2)n1` (centres unmarked) [Example 380, N-(1′-(6-methyl-2-(oxetan-2-ylmethoxy)pyrimidin-4-yl)-1′,2′-dihydrospiro[cyclopropane-1,3′-pyrrolo[3,2-c]pyridin]-6′-yl)acetamide trifluoroacetate] here?
The IC50 was 10 to 100 nM.

With `CC(=O)Nc1cc2c(cn1)C1(CC1)CN2c1cc(-c2cnn(CC#N)c2)nc(C(C)(F)F)n1` [Example 393, N-(1′-(6-(1-(cyanomethyl)-1H-pyrazol-4-yl)-2-(1,1-difluoroethyl)pyrimidin-4-yl)-1′,2′-dihydrospiro[cyclopropane-1,3′-pyrrolo[3,2-c]pyridin]-6′-yl)acetamide] as the molecule, how does the IC50 [2, 3] read?
Its IC50 is at most 10 nM.
